In patent US20090298103A1, “Predicting hemostatic risk; dependence on plasma composition” (The University of Vermont and State Agriculture College, priority 2008, published 2009):
Where two headings read alike, the source gives them in different places.

Experiments:
[1] = Light scattering measurement of Protein S depolymerization on Ca++ addition; format: physicochemical
Text: Open squares: commercial PS and closed squares: in-house PS.
In regards to Protein S (PS) a Tf-based assay for PS in CTI-inhibited recalcified PS deficient plasma was developed. […] Dilutions of a normal plasma pool fall on this curve (open symbols). […] The convergence of plasma dilution data with the purified protein curve lends support of the preservation of natural PS quality in the material we isolate. The rate of depolymerization of Ca^++ free PS upon addition of Ca^++ using light scattering (FIG. 26B) was evaluated.

[2] = test system: thrombin formation after resupply; test: Synthetic coagulation proteome, resupply response (therapeutic anticoagulation); format: biochemical, human
Procedure: (§1) Synthetic Coagulation Model—The procedure used is a modification of Lawson et al. [Lawson, J. H., Kalafatis, M., Stram, S., and Mann, K. G. (1994) J. Biol. Chem. 269, 23357-23366] and van't Veer et al. [van't Veer, C. and Mann, K. G. (1997) J. Biol. Chem. 272, 4367-4377]. Relipidated Tf at 5 pM final concentration was added to a mixture of fII, fV, fVII, fVIIIa, fVIII, fIX, fX, fXI, TFPI, and AT (all at mean physiologic concentrations) (43) in 20 mM HEPES/150 mM NaCl (HBS) with 2 mM CaCl2 containing 2 μM PCPS. Pharmacologic agents were incorporated into the reaction mixture prior to addition of the Tf reagent. Resupply was conducted at 20 min post Tf initiation by the addition of an equal volume of a freshly constituted, Tf free mixture containing procofactors, zymogens and inhibitors in HBS with 2 mM CaCl2 and 2 μM PCPS to an ongoing reaction. Pharmacologic agents were present in the resupply mixture at twice their final concentration.
(§2) Thrombin generation over time was measured in a chromogenic assay using Spectrozyme TH and a THERMOmax microplate reader (Molecular Devices Corp., Menlo Park, Calif.). In experiments assessing the reversible thrombin inhibitor DAPA, rates of thrombin generation were calculated by reference to a standard curve relating thrombin concentration to rates of substrate hydrolysis in the presence of relevant DAPA concentrations.
Therapeutic Anticoagulation—We have previously reported that one outcome in closed model systems of Tf-initiated coagulation is the formation of a relatively stable prothrombin activating potential which responds to the introduction of a new supply of reactants with an immediate burst of thrombin production, i.e., a “resupply response” (see U.S. application Ser. No. 10/507,661). There is shown in FIGS. 32A-D and 33A-D computational (FIGS. 32A,C; FIGS. 33A,C) and representative empirical (FIGS. 32B,D; FIGS. 33B,D) assessments of the efficacy of each anticoagulant in suppressing the resupply response. Computational and empirical time courses of thrombin formation are shown for the final 5 min of the Tf-initiated process and for the resupply phase.

prothrombin = test: Western blot of prothrombin consumption during resupply in the synthetic coagulation proteome; format: biochemical, human
Procedure: Gel Electrophoresis and Western Blotting—Resupply time course samples were quenched into an equal volume of 50 mM EDTA, 50 μM FPRck in HBS and 4 μl aliquots (potentially containing 100 ng prothrombin) were made 2% in SDS and 2% in β-mercaptoethanol and analyzed by SDS-PAGE. Protein species were separated on 4 to 12% linear gradient gel and transferred to nitrocellulose membranes (Bio-Rad Laboratories Inc., US). FII and its activation products were probed for using a polyclonal burro anti-human prethrombin 1 antibody. Reactive bands were detected using goat anti-equine horseradish peroxidase conjugated IgG (Southern Biotechnology, Birmingham Ala.) with a chemiluminescence reagent (Perkin Elmer, Boston Mass.) and Kodak X-OMat film.
Prothrombin Consumption during Resupply—In FIGS. 32B, 32D and 33D, the estimates of UFH, Fpx and DAPA efficacy potentially represent a combination of 2 modes of anticoagulant action: their relative reactivity toward preformed catalytic complexes and their direct inhibition of thrombin formed during the reaction. […]

[3] = test system: Tf-initiated thrombin formation; test: Synthetic coagulation proteome, Tf-initiated thrombin generation (prophylactic anticoagulation); format: biochemical, human
Text: Materials—Human coagulation fVII, fX, fIX, and prothrombin (fII), were isolated from fresh frozen plasma using the methods of Bajaj et al., and were purged of traces of active enzymes. FXI was purified using the monoclonal anti-fXI antibody α-fXI-2. Human fV and AT were isolated from freshly frozen plasma. The following were provided as gifts: recombinant fVIII and recombinant Tf (residues 1-242); recombinant human fVIIa; and recombinant full-length tissue factor pathway inhibitor (TFPI). Corn trypsin inhibitor (CTI) was isolated from popcorn. The preparation of the Tf/lipid reagent was performed. 1,2-Dioleolyl-sn-Glycero-3-Phospho-L-Serine (PS) and 1,2-Dioleoyl-sn-Glycero-3-Phosphocholine (PC) were purchased from Avanti Polar Lipids, Inc (Alabaster, Ala.), and EDTA was purchased from Sigma (St Louis, Mo.). Phospholipid vesicles (PCPS) composed of 75% PC and 25% PS and were prepared.
as §1, §2
Incorporation of Anticoagulants into the Mathematical Model—FIG. 27 presents the sets of equations describing the mechanisms of action of each of the anticoagulants used in this study and FIG. 28 presents the rate constants controlling the identified bimolecular interactions and the dosing ranges recommended for prophylactic and therapeutic applications. Details of modeling the various anticoagulant interactions are described herein and in the Methods section. Prophylactic Anticoagulation—There is shown in FIGS. 30A and 30 C computational assessments and in FIGS. 30B and D empirical assessments of the efficacy of each anticoagulant in suppressing the onset of Tf-initiated thrombin formation. In both empirical and computational studies, a 5 pM Tf reagent stimulus was used and thrombin generation assessed over 20 min. Results are presented that compare thrombin generation in the absence of anticoagulant (♦) to that observed over the range of anticoagulant concentrations that drive the transition from partial to maximum suppression of thrombin formation. […]

[4] = target: thrombin and meizotirombin (mIIa); details: cited from earlier work
[5] = test system: contact pathway inhibited blood; test: Contact pathway inhibited whole blood, resupply; format: biochemical, human; details: 160 nM C921-78
Text: (§3) Whole Blood Model—The protocol used is a modification of Rand et al. [Orfeo, T., Butenas, S., Brummel-Ziedins, K. E., and Mann, K. G. (2005) J. Biol. Chem. 280, 42887-42896; Rand, M. D., Lock, J. B., van't Veer, C., Gaffney, D. P., and Mann, K. G. (1996) Blood 88, 3432-3445]. A healthy donor was recruited, advised according to a protocol approved by the University of Vermont Human Studies Committee and their consent was obtained. […] Blood was drawn by venipuncture and immediately delivered into the reagent-loaded tubes. In general, 2 sets of aliquots of CTI treated blood were initiated with […] Tf reagent. One set was quenched at 1 min intervals while the other was incubated for 20 min. […] This resupply blood contained CTI alone (0.1 mg/ml), CTI+2 uM fondaparinux or CTI+320 nM C921-78. After the experiment, the tubes are centrifuged and the supernatants are aliquoted and analyzed for TAT levels. A subset of tubes containing either Fpx or C921-78 were initiated with 5 pM Tf reagent, quenched at 20 min and analyzed for TAT levels.
(§4) Anticoagulant Efficacy in Whole Blood—To test whether results from the computational and proteome based analyses would extrapolate to a more complex empirical model, the efficacy of anticoagulants in suppressing thrombin generation was addressed in contact pathway inhibited blood in both Tf-initiated and resupply regimens. […]

fXa in prothrombinase = fXa in prothrombinase (Homo sapiens, UniProt P00742); details: cited from earlier work
[6] = test system: contact pathway inhibited blood; test: Contact pathway inhibited whole blood, Tf-initiated TAT formation; format: biochemical, human; details: increasing concentrations incorporated into blood prior to Tf (5 pM)
Text: as §3, §4

fXa = fXa (Homo sapiens, UniProt P00742); details: cited from earlier work
fVIIa = target: T1, fVIIa (Homo sapiens, UniProt P08709); test: Factor VIIa titrations of Tf proteins in the absence of lipid; format: biochemical; details: in complex with fVIIa, Tf 0.1 nM, no lipid
T1 construct: Novo Nordisk (gift)
Procedure: FIG. 24 is a graphical view of factor VIIa titrations of recombinant Tf (rTf) 1-263, rTf 1-242 and human placental Tf (all at 0.1 nM) in the absence of lipid.
Reports of physical studies of Tf have made use of SDS-PAGE, amino acid analyses and presumed stoichiometry of binding. In a most recent review, a Tf molecular weight of 47 kDa is cited, introducing a 30% error for any experimental physical parameter regarding Tf and its interactions. Tf proteins are distinguished by functional activities in simple as well as in complex reaction systems (FIGS. 24, 25).

thrombin generation = test: Thrombin generation in reconstituted coagulation platelet proteome; format: biochemical, human
Text: FIG. 25 is a graphical view of thrombin generation in synthetic plasma with platelets (2×10^8/ml). Notice monocyte in situ and monocyte purified.

T1 sequence (P08709 213-466 limits assumed, one chain of several): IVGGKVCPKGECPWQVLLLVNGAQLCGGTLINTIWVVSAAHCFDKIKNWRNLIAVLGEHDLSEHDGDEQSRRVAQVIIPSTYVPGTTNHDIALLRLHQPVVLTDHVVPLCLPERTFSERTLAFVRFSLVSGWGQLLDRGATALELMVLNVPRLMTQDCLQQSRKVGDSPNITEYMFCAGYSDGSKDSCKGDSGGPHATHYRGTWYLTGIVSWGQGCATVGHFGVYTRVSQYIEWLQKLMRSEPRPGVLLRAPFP
T1 sequence (P08709 61-212 partner limits assumed, one chain of several): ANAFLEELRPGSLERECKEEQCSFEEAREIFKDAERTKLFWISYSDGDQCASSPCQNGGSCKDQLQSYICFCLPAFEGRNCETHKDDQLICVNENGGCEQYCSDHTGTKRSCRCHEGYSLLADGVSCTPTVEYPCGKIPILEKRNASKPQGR
Chain of fXa in prothrombinase (P00742 235-488 limits assumed): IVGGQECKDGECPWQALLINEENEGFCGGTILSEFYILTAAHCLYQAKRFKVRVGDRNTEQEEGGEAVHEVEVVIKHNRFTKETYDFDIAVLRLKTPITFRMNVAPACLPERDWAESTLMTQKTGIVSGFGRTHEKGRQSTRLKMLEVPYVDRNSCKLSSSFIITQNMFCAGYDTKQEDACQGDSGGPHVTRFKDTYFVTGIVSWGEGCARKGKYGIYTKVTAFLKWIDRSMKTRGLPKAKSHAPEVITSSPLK
Chain of fXa in prothrombinase (P00742 41-179 partner limits assumed): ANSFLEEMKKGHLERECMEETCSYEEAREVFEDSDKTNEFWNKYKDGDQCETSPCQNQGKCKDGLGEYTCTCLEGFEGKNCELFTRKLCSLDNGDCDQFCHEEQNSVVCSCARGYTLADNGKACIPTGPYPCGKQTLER
Chain of fXa in prothrombinase (P12259 29-737 partner limits assumed): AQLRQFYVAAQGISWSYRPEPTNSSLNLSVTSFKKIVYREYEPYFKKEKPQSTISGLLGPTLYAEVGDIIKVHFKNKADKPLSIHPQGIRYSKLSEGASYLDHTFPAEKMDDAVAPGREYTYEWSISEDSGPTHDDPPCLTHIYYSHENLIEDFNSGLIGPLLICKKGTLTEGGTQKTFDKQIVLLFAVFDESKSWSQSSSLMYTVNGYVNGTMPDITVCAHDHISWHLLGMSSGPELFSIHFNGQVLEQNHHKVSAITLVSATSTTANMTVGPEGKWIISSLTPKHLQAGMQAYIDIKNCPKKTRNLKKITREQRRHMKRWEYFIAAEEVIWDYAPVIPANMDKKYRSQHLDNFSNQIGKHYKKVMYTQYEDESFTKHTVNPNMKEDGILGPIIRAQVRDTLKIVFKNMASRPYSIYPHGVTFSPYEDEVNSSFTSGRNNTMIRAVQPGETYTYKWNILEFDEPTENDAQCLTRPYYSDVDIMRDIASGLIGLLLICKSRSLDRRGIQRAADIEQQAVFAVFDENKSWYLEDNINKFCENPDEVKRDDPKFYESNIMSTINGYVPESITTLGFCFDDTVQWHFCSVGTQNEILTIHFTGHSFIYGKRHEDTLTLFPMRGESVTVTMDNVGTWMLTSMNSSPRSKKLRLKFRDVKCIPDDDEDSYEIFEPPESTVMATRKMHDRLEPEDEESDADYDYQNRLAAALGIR
Chain of fXa in prothrombinase (P12259 1574-2224 partner limits assumed): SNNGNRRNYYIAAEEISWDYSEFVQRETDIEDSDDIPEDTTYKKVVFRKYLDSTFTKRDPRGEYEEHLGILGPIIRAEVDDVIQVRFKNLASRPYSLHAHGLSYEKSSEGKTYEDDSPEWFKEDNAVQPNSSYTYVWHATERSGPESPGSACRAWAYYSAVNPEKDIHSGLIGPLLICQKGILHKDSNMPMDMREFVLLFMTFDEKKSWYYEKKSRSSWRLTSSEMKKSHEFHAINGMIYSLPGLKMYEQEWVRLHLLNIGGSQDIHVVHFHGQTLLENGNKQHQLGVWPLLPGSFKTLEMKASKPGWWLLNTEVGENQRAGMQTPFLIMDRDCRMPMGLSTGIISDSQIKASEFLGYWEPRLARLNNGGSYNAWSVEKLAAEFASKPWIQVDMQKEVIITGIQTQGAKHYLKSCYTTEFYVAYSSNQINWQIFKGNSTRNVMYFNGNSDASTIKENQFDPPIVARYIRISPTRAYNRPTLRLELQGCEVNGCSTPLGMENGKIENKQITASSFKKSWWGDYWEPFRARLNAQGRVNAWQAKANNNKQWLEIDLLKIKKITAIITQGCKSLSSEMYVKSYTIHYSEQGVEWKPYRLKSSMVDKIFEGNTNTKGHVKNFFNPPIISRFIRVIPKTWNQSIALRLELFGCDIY
Chain of fXa (P00742 235-488 limits assumed): as the sequence (P00742 235-488 limits assumed) above
Chain of fXa (P00742 41-179 partner limits assumed): as the sequence (P00742 41-179 partner limits assumed) above

In the case of “PS: purified in-house Protein S preparation”, the “half time of depolymerization of Ca++ free PS upon addition of Ca++” value ([1]; 25° C.) is reported as “approximately 100 s”.

With CCC1CCN(C(=O)C(CCCNC(=N)N)NS(=O)(=O)c2cccc3c(N(C)C)cccc23)CC1 (stereo not shown) [DAPA, dansylarginine-N-[3-ethyl-1,5-pentanediyl]amide] the “difference in rate or maximum final level of IIa=DAPA between the 2 DAPA concentrations” value ([2]; 10 μM vs 100 μM DAPA) was “No substantial difference in rate or maximum final level”, the “blocking prothrombin consumption in the resupply format” value (prothrombin; DAPA) was “completely ineffective” and the “effect on prothrombin consumption” value ([3]; 20 μM DAPA) was “only attenuating the maximum rate of prothrombin consumption”. The total prothrombin consumption ([3]; 100 μM DAPA) was roughly 20 nM, the Kd ([4]; thrombin and meizothrombin) was 20 to 40 nM and the Kd ([4]; value used in the model (FIG. 27)) was 40 nM.

For N=C(N)NCCCC(NS(=O)(=O)c1ccccc1)C(=O)NCC(=O)NC(CCCNC(=N)N)C(=O)c1nccs1 [C921-78, Benzenesulfonyl-D-Arg-Gly-Arg-ketothiazole], the maximum thrombin levels ([2]; 70 nM C921-78) was 35 nM, the “time of maximum thrombin level post resupply” value ([2]; 70 nM C921-78) was 4 min and the maximum thrombin levels ([2]; 100 nM C921-78) was roughly 25 nM. For the same molecule, the “time of maximum thrombin level post resupply” value ([2]; 100 nM C921-78) was 10 min, the “delay of thrombin generation” value ([2]; 160 nM C921-78) was 11 min and the maximum thrombin levels ([2]; 160 nM C921-78) was 14 nM. The “prothrombin consumption (immunoblots)” value [5] was “minimal”, the “prothrombin consumption at 15 min” value (prothrombin; 160 nM C921-78, densitometric analyses) was roughly 10% and the Kd (fXa in prothrombinase) was 0.022 nM. For the same molecule, the “TAT levels at 20 min” value [6] was “decreases in TAT levels”, the “displacing the onset of thrombin generation” value ([3]; 1 nM C921-78) was “somewhat more effective than computationally predicted” and the “effects on maximum rate and concentrations of IIa” value ([3]; 1 nM C921-78) was “minimal effects”. For the same molecule, the thrombin generation ([3]; 10 nM C921-78) was “completely suppressed” and the Kd (fXa) was roughly 0.014 nM.

With “placental Tf: natural human placental tissue factor isolated by monoclonal antibody procedure” the “Kd compared with the recombinant proteins” value (fVIIa) was “lower Kd” and the “Vmax compared with the recombinant proteins” value (fVIIa) was “higher Vmax”.

For “commercial preparation of PS (ERL): commercial preparation of Protein S (ERL)”, the depolymerization behavior ([1]; commercial preparation (ERL)) was “does not show this depolymerization behavior”.

B1: monocyte Tf: tissue factor from THP-1 monocytes after stimulation with LPS (protein, UniProt P13726 33-295, looked up)
Tissue factor: SGTTNTVAAYNLTWKSTNFKTILEWEPKPVNQVYTVQISTKSGDWKSKCFYTTDTECDLTDEIVKDVKQTYLARVFSYPAGNVESTGSAGEPLYENSPEFTPYLETNLGQPTIQSFEQVGTKVNVTVEDERTLVRRNNTFLSLRDVFGKDLIYTLYYWKSSSSGKKTAKTNTNEFLIDVDKGENYCFSVQAVIPSRTVNRKSTDSPVECMGQEKGEFREIFYIIGAVVFVVIILVIILAISLHKCRKAGVGQSWKENSPLNVS
With B1 the “activity relative to monocyte Tf reconstituted on synthetic membranes” value (thrombin generation) was roughly 400 ×.
